Experimental data published in the supplement of paper PMC12076712.

What was measured:
Assay in all cases: pIC50, kinobeads binding competition
AAK1 = AAK1 (UniProt Q2M2I8)
In short: (§1)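 pIC50 was obtained by fitting fold changes against vehicle to logistic dose-response curves with the R drc package, using biological duplicates. Kinobeads-bound proteins were digested and measured by TMT10 LC-MS/MS. Before this, either living Jurkat cells received nine compound concentrations (top 30 μM, 1:4 steps) for 60 min at 37 °C prior to lysis, or Jurkat lysate or a 1:1:1:1 HEK293/K-562/HepG2/placenta lysate mix received nine concentrations (top 30 μM, 1:5 steps) for 60 min at 4 °C.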

CAMK2G = CAMK2G (UniProt Q13555)
In short: as §1

FER = FER (UniProt P16591)
In short: as §1

LATS1 = target: T1, LATS1 (UniProt O95835)
T1 sequence (whole entry): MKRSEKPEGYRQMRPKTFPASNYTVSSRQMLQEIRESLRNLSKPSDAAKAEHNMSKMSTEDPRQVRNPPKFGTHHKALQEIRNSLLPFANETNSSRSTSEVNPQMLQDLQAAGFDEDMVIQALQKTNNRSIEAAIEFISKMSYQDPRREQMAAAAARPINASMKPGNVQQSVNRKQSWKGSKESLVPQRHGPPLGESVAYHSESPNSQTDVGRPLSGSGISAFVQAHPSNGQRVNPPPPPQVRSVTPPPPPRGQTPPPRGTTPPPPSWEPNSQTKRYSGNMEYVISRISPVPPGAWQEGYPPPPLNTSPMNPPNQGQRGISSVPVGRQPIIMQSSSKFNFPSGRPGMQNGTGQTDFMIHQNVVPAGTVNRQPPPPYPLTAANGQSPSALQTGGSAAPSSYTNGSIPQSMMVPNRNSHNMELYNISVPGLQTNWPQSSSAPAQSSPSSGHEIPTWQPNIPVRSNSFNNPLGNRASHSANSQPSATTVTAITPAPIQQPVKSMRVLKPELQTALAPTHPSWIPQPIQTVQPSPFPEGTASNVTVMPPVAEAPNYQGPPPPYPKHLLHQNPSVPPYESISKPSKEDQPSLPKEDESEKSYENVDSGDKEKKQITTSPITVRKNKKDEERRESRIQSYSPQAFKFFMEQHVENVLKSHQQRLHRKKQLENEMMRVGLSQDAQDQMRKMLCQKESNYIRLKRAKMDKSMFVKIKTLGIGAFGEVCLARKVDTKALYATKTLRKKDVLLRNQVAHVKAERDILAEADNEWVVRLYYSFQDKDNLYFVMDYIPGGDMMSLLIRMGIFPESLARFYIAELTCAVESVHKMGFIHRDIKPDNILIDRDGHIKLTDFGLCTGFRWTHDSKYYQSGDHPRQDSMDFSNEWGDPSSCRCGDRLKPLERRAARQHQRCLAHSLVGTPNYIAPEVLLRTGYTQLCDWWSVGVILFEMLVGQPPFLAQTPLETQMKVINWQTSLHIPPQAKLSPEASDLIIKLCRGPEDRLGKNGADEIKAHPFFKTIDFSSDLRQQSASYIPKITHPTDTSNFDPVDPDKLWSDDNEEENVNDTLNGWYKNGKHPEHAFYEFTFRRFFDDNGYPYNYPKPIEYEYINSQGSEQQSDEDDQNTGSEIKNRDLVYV
In short: as §1

NEK9 = target: T2, NEK9 (UniProt Q8TD19)
T2 sequence (whole entry): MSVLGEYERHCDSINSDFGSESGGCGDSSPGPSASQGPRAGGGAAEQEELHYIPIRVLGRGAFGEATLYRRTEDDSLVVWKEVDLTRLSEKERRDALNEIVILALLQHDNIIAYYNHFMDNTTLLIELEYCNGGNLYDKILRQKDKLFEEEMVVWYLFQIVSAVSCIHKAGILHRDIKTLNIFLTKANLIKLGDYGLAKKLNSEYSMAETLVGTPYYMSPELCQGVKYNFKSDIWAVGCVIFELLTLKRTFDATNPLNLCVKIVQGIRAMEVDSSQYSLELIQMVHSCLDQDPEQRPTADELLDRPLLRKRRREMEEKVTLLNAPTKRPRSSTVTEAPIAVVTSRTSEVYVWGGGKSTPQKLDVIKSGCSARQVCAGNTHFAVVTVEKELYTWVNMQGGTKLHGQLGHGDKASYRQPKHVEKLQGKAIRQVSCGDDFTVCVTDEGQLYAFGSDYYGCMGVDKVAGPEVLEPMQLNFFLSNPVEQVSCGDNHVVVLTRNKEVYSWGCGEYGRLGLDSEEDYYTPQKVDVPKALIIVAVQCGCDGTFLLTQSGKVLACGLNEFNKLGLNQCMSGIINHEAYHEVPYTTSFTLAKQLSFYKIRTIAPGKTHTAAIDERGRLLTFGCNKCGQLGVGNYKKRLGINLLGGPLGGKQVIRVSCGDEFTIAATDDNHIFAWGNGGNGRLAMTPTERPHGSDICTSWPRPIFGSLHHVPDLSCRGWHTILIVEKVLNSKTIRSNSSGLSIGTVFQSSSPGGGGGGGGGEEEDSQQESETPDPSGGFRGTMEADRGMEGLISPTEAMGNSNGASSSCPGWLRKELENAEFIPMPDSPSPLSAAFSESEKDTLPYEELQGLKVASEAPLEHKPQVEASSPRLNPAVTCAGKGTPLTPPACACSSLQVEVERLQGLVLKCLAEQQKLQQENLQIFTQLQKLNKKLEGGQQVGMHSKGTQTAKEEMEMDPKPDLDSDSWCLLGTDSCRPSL
In short: as §1

RIPK2 = RIPK2 (UniProt O43353); conditions: cell material: Lysate mix
In short: as §1

UniProt O75460 = target: UniProt O75460
In short: as §1

UniProt P04629 = conditions: cell material: Lysate mix
In short: as §1

UniProt P19784 = target: UniProt P19784
In short: as §1

UniProt Q07912 = target: UniProt Q07912
In short: as §1

UniProt Q9H0K1 = target: UniProt Q9H0K1
In short: as §1

## C#CCNC(=O)c1cc(Nc2cc(C3CC3)[nH]n2)nc(N2CCN(Cc3ccc(S(=O)(=O)F)cc3)CC2)n1
AAK1; cell material: Jurkat cells
  pIC50: 5.43
AAK1; cell material: Jurkat lysate
  pIC50: < 4.52
AAK1; cell material: Lysate mix
  pIC50: < 4.52
CAMK2G; cell material: Jurkat cells
  pIC50: 5.13
CAMK2G; cell material: Jurkat lysate
  pIC50: < 4.52
CAMK2G; cell material: Lysate mix
  pIC50: < 4.52
FER; cell material: Jurkat cells
  pIC50: 6.2
FER; cell material: Jurkat lysate
  pIC50: 5.44
FER; cell material: Lysate mix
  pIC50: 5.92
LATS1; cell material: Jurkat cells
  pIC50: 6.2
LATS1; cell material: Jurkat lysate
  pIC50: 4.7
LATS1; cell material: Lysate mix
  pIC50: 5.56
NEK9; cell material: Jurkat cells
  pIC50: 6.87
NEK9; cell material: Jurkat lysate
  pIC50: 6.66
NEK9; cell material: Lysate mix
  pIC50: 7.48
RIPK2
  pIC50: < 4.52
UniProt O75460; cell material: Jurkat cells
  pIC50: < 4.52
UniProt O75460; cell material: Jurkat lysate
  pIC50: < 4.52
UniProt O75460; cell material: Lysate mix
  pIC50: < 4.52
UniProt P04629
  pIC50: 5.39
UniProt P19784; cell material: Jurkat cells
  pIC50: 5.66
UniProt P19784; cell material: Jurkat lysate
  pIC50: < 4.52
UniProt P19784; cell material: Lysate mix
  pIC50: 4.96
UniProt Q07912; cell material: Jurkat cells
  pIC50: 5.16
UniProt Q07912; cell material: Jurkat lysate
  pIC50: < 4.52
UniProt Q07912; cell material: Lysate mix
  pIC50: < 4.52
UniProt Q9H0K1; cell material: Jurkat cells
  pIC50: 6.22
UniProt Q9H0K1; cell material: Jurkat lysate
  pIC50: < 4.52
UniProt Q9H0K1; cell material: Lysate mix
  pIC50: < 4.52

## C#CCNC(=O)c1cc(Nc2cc(C)[nH]n2)nc(N2CCN(Cc3ccc(S(=O)(=O)F)cc3)CC2)n1
AAK1; cell material: Lysate mix
  pIC50: < 4.52
CAMK2G; cell material: Lysate mix
  pIC50: < 4.52
FER; cell material: Lysate mix
  pIC50: 4.78
LATS1; cell material: Lysate mix
  pIC50: 4.65
NEK9; cell material: Lysate mix
  pIC50: 6.52
RIPK2
  pIC50: < 4.52
UniProt O75460; cell material: Lysate mix
  pIC50: < 4.52
UniProt P04629
  pIC50: < 4.52
UniProt P19784; cell material: Lysate mix
  pIC50: 4.78
UniProt Q07912; cell material: Lysate mix
  pIC50: < 4.52
UniProt Q9H0K1; cell material: Lysate mix
  pIC50: < 4.52

## Cc1cc(Nc2cc(C(=O)NCCNC(=O)OC3CC/C=C/CCC3)nc(N3CCN(Cc4ccc(S(=O)(=O)F)cc4)CC3)n2)n[nH]1 (stereo unspecified)
AAK1; cell material: Lysate mix
  pIC50: < 4.52
CAMK2G; cell material: Lysate mix
  pIC50: < 4.52
FER; cell material: Lysate mix
  pIC50: < 4.52
LATS1; cell material: Lysate mix
  pIC50: < 4.52
NEK9; cell material: Lysate mix
  pIC50: 5.2
RIPK2
  pIC50: < 4.52
UniProt O75460; cell material: Lysate mix
  pIC50: < 4.52
UniProt P04629
  pIC50: < 4.52
UniProt P19784; cell material: Lysate mix
  pIC50: < 4.52
UniProt Q07912; cell material: Lysate mix
  pIC50: < 4.52
UniProt Q9H0K1; cell material: Lysate mix
  pIC50: < 4.52

## O=C(NCCNC(=O)c1cc(Nc2cc(C3CC3)[nH]n2)nc(N2CCN(Cc3ccc(S(=O)(=O)F)cc3)CC2)n1)OC1CC/C=C/CCC1 (stereo unspecified)
AAK1; cell material: Jurkat cells
  pIC50: < 4.52
AAK1; cell material: Jurkat lysate
  pIC50: < 4.52
AAK1; cell material: Lysate mix
  pIC50: < 4.52
CAMK2G; cell material: Jurkat cells
  pIC50: < 4.52
CAMK2G; cell material: Jurkat lysate
  pIC50: < 4.52
CAMK2G; cell material: Lysate mix
  pIC50: < 4.52
FER; cell material: Jurkat cells
  pIC50: 5.6
FER; cell material: Jurkat lysate
  pIC50: < 4.52
FER; cell material: Lysate mix
  pIC50: < 4.52
LATS1; cell material: Jurkat cells
  pIC50: 5.78
LATS1; cell material: Jurkat lysate
  pIC50: < 4.52
LATS1; cell material: Lysate mix
  pIC50: < 4.52
NEK9; cell material: Jurkat cells
  pIC50: 6.9
NEK9; cell material: Jurkat lysate
  pIC50: 5.24
NEK9; cell material: Lysate mix
  pIC50: 5.56
RIPK2
  pIC50: < 4.52
UniProt O75460; cell material: Jurkat lysate
  pIC50: < 4.52
UniProt O75460; cell material: Lysate mix
  pIC50: < 4.52
UniProt P04629
  pIC50: < 4.52
UniProt P19784; cell material: Jurkat cells
  pIC50: 4.7
UniProt P19784; cell material: Jurkat lysate
  pIC50: < 4.52
UniProt P19784; cell material: Lysate mix
  pIC50: < 4.52
UniProt Q07912; cell material: Jurkat cells
  pIC50: < 4.52
UniProt Q07912; cell material: Jurkat lysate
  pIC50: < 4.52
UniProt Q07912; cell material: Lysate mix
  pIC50: < 4.52
UniProt Q9H0K1; cell material: Jurkat cells
  pIC50: 5.62
UniProt Q9H0K1; cell material: Jurkat lysate
  pIC50: < 4.52
UniProt Q9H0K1; cell material: Lysate mix
  pIC50: < 4.52

## CCNC(=O)c1cc(Nc2cc(C)[nH]n2)nc(N2CCN(Cc3ccc(S(=O)(=O)F)cc3)CC2)n1
AAK1; cell material: Lysate mix
  pIC50: < 4.52
CAMK2G; cell material: Lysate mix
  pIC50: < 4.52
FER; cell material: Lysate mix
  pIC50: 4.72
LATS1; cell material: Lysate mix
  pIC50: < 4.52
NEK9; cell material: Lysate mix
  pIC50: 7.27
RIPK2
  pIC50: < 4.52
UniProt O75460; cell material: Lysate mix
  pIC50: < 4.52
UniProt P04629
  pIC50: < 4.52
UniProt P19784; cell material: Lysate mix
  pIC50: 5.1
UniProt Q07912; cell material: Lysate mix
  pIC50: < 4.52
UniProt Q9H0K1; cell material: Lysate mix
  pIC50: < 4.52

## CCNC(=O)c1cc(Nc2cc(C3CC3)[nH]n2)nc(N2CCN(Cc3ccc(S(=O)(=O)F)cc3)CC2)n1
AAK1; cell material: Lysate mix
  pIC50: < 4.52
CAMK2G; cell material: Lysate mix
  pIC50: < 4.52
FER; cell material: Lysate mix
  pIC50: 5.62
LATS1; cell material: Lysate mix
  pIC50: 5.3
NEK9; cell material: Lysate mix
  pIC50: 7.29
RIPK2
  pIC50: < 4.52
UniProt O75460; cell material: Lysate mix
  pIC50: < 4.52
UniProt P04629
  pIC50: 5.58
UniProt P19784; cell material: Lysate mix
  pIC50: 5.47
UniProt Q07912; cell material: Lysate mix
  pIC50: < 4.52
UniProt Q9H0K1; cell material: Lysate mix
  pIC50: < 4.52
